Assay: Displacement of [3H]U69593 from human recombinant kappa opioid receptor expressed in CHO cells

Q: For CC[C@]12CCN(C)C[C@H]1Oc1ccc(O)cc12 [4aR,9aS-(+)-cis-4a-Ethyl-2-methyl-1,2,3,4,4a,9a-hexahydrobenzofuro[2,3-c]pyridin-6-ol], which Ki is on record?
A: > 10 µM

Source: BindingDB's records for doi:10.1021/jm9004225 (National Institute On Drug Abuse and The National Institute …, 2009)
